details: not given

logP | SMILES
1.99 | O=C(O)c1ccc(F)cc1
3 | O=C(O)c1cccc(I)c1

SMILES | logP
Oc1ccc(I)cc1 | 2.82

details: pH 1.0

SMILES | logD
O=C(O)c1cccc(Cl)c1 | 2.51
Oc1cccc(Br)c1 | 2.59

same assay, conditions: pH 13.0

SMILES | logD
Nc1cccc([N+](=O)[O-])c1 | 1.43
Cc1cccc(N)c1 | 1.49
Nc1cccc(I)c1 | 2.86
Cc1ccccc1N | 1.44
Nc1ccc(Cl)cc1 | 1.8
Nc1ccc(Br)cc1 | 2

Source: the SangsterLogP compilation
